The text below walks through data of PMC5704756, “Hydrolysis, polarity, and conformational impact of C-terminal partially fluorinated ethyl esters in peptide models” (Beilstein Journal of Organic Chemistry, 2017).

By logP is commonly meant the decadic logarithm of the partition coefficient of the neutral form, usually between octanol and water. A high value points to a more lipophilic compound.

A short description of data set [1]: Hydrolytic stability of esters 1–5 in aqueous potassium phosphate buffer, monitored by 1H and 19F NMR. The format is physicochemical. Conditions: pH 11.0, 298 K, ester hydrolysis, pseudo-first order. The source says: The kinetic stability of the ester linkage in the aqueous medium is of critical importance, as it further defines the time window for the reactions with the corresponding esters under the biologically relevant conditions of aqueous buffers. Hydrolysis of the C-terminal esters has been fairly well described in the literature, indicating the hydrolysis occurs via a pseudo-first order reaction in a buffered medium assuming that [HO^−] is constant (Equations 1–3): […]
Next, we determined the half-life values following the above mentioned kinetic model for esters 1–5 in aqueous medium at pH 11 and 298 K (Figure 2). […] For the subsequent fluorine atoms, the hydrolysis rate increased by a factor of 3–4 for each appended fluorine atom. […] Extrapolation to pH 8.0 gives a value of 107 ± 28 hours. (This procedure requires multiplication by 1000.) We experimentally determined the half-life of 5 at pH 8 to be 102 ± 2 hours, which agrees well with the extrapolation. The mutual consistency of the values determined with different kinetic modes (minutes at pH 11, days at pH 8) provides a good indication of their accuracy.
Aqueous potassium phosphate buffer (100 mM) at pH 11.0 or 8.0 was mixed with 1:10 (v/v) deuterium oxide to give 550 μL of 91 mM buffer. The analyte 1–5 was added from a 200 mM stock solution in deuterium oxide to give 0.5 mM analyte. The first NMR spectra were collected within 4 min following addition of the analyte. The monitoring was continued by recording ^1H and ^19F NMR spectra at regular time points until >50% hydrolysis. Ambient temperature was maintained at 298 ± 1 K. The decay of the integral intensity of the analyte was quantified by integration. Plotting the logarithm of the intensity versus time delivered the kinetic constant, which was converted to the half-life time (squared correlation coefficient > 0.90). The experiments were performed in triplicate.

Data set [2] in a line: Partitioning between octan-1-ol and water (NMR detection). The format is physicochemical. Conditions: octan-1-ol/water; 298 K, 24 hours partitioning, NMR. The method, then:
To characterize the lipophilicity, esters 1–5 were subjected to 24 hours of partitioning between octan-1-ol and water at 298 K. The resulting partition is illustrated in Figure 3. […] The lipophilicity of 2,2-difluoroethyl derivative 4 is nearly identical to that of parent ethyl ester 2, and the relative difference in the logP from the increase (5 vs 4, ΔlogP = +0.53 ± 0.13) and decrease (3 vs 4, ΔlogP = −0.45 ± 0.13) in the number of fluorine atoms are equivalent to one methyl group difference (2 vs 1, ΔlogP = +0.44 ± 0.08). The amplitude of the change is similar to that reported recently for the corresponding fluorinated ethanols. Importantly, C-terminal esterification maintains a much higher lipophilicity compared with the C-terminal amide 7 (Table 1).
To 4–5 mg analyte, octan-1-ol (1.00 mL) and deionized water (1.00 mL) were added. The mixture was shaken gently at ambient temperature (298 ± 2 K) for 24 hours. Each phase (200 μL) was sampled using identical NMR tubes, and acetonitrile-d3 (300 μL) was added to each sample. The NMR measurements were performed by ^1H or ^19F detection at 298 K using calibrated 90-degree pulses and one-scan experiments in order to ensure complete pre-relaxation. The same acquisition parameters were used for the octan-1-ol and water samples; for processing, only the zero phase was adjusted. The spectra were baseline corrected, and equivalent resonances were integrated. The ratio between the signal intensities was considered as the partitioning constant. The partitioning experiments were performed in triplicate. Subsequent addition of water and octan-1-ol was performed in forward and reverse manner, and the resulting partitioning constants were identical within experimental error.

A short description of data set [3]: Amide rotational thermodynamics and kinetics (trans/cis isomerism) by NMR / EXSY. The format is physicochemical. An excerpt: For 1–5, we found the trans/cis ratios ≈ 5 for all five esters when measured in aqueous medium; the kinetic parameters of the amide rotation were also nearly identical (Table 2). We then noticed that the trans/cis ratios measured for the fluorine-labeled esters 3–5 in nonpolar solvents (such as benzene) were systematically higher relative to the reference compounds 1 and 2. We tested the relative increase in the trans-amide preference ΔΔG as a function of solvent (Equation 4) and found a dependence of this parameter on the dielectric constant, as would be expected from an electrostatic interaction between the polar alkoxy group and the amide moiety (Figure 4).
The amide rotational thermodynamic and kinetic measurements were performed by NMR as described in [50, 68]. The equilibrium ratio between the rotameric states was obtained from the ^1H, ^19F and ^19F{^1H} (inverse-gated decoupling) spectra at 298 K by integration. The kinetics was measured in ^1H and/or ^19F{^1H} z-cross-relaxation experiments at either 310 K (for deuterium oxide samples) or 298 K (for benzene samples). The Jαβ-coupling values were obtained by visual inspection of the α-CH resonances in the ^1H NMR spectra, and the accuracy was defined by the length of the time domain spectrum at approximately 0.3 Hz. The semi-empirical calculations were performed by using the PM6 algorithm from the MOPAC package. DFT geometry optimization of the 5 amide rotamers was performed using B88-PW91 GGA with the DZVP basis set.

On the set-up of data set [4]: method as in doi:10.1002/ijch.201600106. Conditions: 310 K, amide rotation, value is k∙10^3, ref [69]; cited from earlier work.
[5] abbreviates: C6D6, 298 K, EXSY NMR, amide rotation, value is k∙10^3.

For `COC(=O)C1CCCN1C(C)=O` (stereo not drawn) [compound 1, Methyl N-acetylprolinate], the “τ½, min (aq buffer)” value in data set [1] is reported as 224 ± 20 (pH 11.0) min. Further, the lipophilicity (logP) at 24 h in data set [2] is -0.44 ± 0.05. The “Ktrans/cis in C6D6” value in data set [3] (C6D6 (ε 2.27), 298 K, analyte 50 ± 10 mM) is on record as 5.10 ± 0.10. Further, in data set [3] (setting [5]), the “k∙10^3 cis→trans in C6D6” value was found to be 342 ± 10 s^−1 and the “k∙10^3 trans→cis in C6D6” value amounted to 67 ± 2 s^−1. Moreover, the “Ktrans/cis in CD2Cl2” value in data set [3] (CD2Cl2 (ε 8.93), 298 K) is 4.18±0.03. For the same molecule, the “Ktrans/cis in CD3CN” value in data set [3] (CD3CN, 298 K) is 4.08±0.04. Besides, in data set [3] (CD3OD (ε 32.7), 298 K), the “Ktrans/cis in CD3OD” value stood at 3.78±0.03. The “Ktrans/cis in CDCl3” value in data set [3] (CDCl3 (ε 4.81), 298 K) came out at 3.84±0.04. Moreover, the “Ktrans/cis in D2O” value in data set [3] (D2O (ε 80.1), 298 K, analyte 50 ± 10 mM, 1H/19F NMR) came to 4.94 ± 0.05. Moreover, in data set [4], the “k∙10^3 cis→trans in D2O” value is 33 ± 2^c s^−1 and the “k∙10^3 trans→cis in D2O” value was 7.0 ± 0.5^c s^−1.
